According to patent US11338007B2, “Combination formulation of three antiviral compounds” (priority 2016, dated 2022):
Values belong to the compound of their own block, whether it stands above or below them.

How the values were obtained:
[1] = Photostability of tablet cores and film-coated tablets per ICH Q1B (Table 12); format: physicochemical; conditions: for level of degradation products: tablets film-coated to weight gains 2.1 to 5.4%; for loss after exposure to light: uncoated tablet cores
Description: Tablet cores and film-coated tablets were evaluated per ICH Q1B guidelines with a total of illumination of more than 1.2 million-lux hours and a total irradiance of more than 200 W·hr/m^2.

[2] = Tablet dissolution, 50 mM sodium acetate buffer pH 5.0 with 2.0% w/v Polysorbate 80, USP Type II, 75 rpm; format: physicochemical; conditions: for dissolution at 30 minutes: after 4 weeks open at 40° C./75% RH
Description: FIGS. 10-12 depict additional dissolution profiles for the sofosbuvir/velpatasvir SSD/voxilaprevir SSD tablets having the formulation described in Table 13 and which were used in phase 1, 2, and 3 clinical studies, where the dissolution testing was conducted at pH 5.0 acetate buffer containing 2.0% w/v polysorbate 80. Four batches of the sofosbuvir/velpatasvir SSD/voxilaprevir SSD tablets were tested, with Batch A manufactured at 100 kg and Batches B, C and D manufactured at 145 kg. All other aspects of the formulation and manufacturing process were otherwise equivalent. […] Moreover, for Batch A, the amount dissolved at 30 min remained between 98 and 100% for sofosbuvir, between 90 and 92% for velpatasvir SSD, and between 89 and 93% for voxilaprevir SSD. […] For Batch D, the amount dissolved at 30 min remained at 100% for sofosbuvir, between 90 and 91% for velpatasvir SSD, and between 89 and 91% for voxilaprevir SSD. Release of velpatasvir SSD and voxilaprevir SSD from the sofosbuvir/velpatasvir SSD/voxilaprevir SSD tablets associated with all four Batches was complete after 60 minutes.

[3] = Tablet dissolution as a function of medium pH and composition (FIGS. 13-15); format: physicochemical; conditions: for dissolution from tablets: pH 2.0, 4.5 and 6.8 buffers, FaSSIF and FeSSIF; for dissolution from tablets at 60 minutes: pH 4.0 and 5.0 containing 2.0% w/v polysorbate 80
[4] = Stress studies: stability of tablets made with stressed VEL SSD/VOX SSD (water, residual solvent, peroxide, reprocessing, potency; Tables 16-21); format: physicochemical
Description: The impact of the following stressors on the physical and chemical stability of the sofosbuvir/velpatasvir SSD/voxilaprevir SSD tablets were evaluated:
(i) Voxilaprevir SSD and velpatasvir SSD, and sofosbuvir/velpatasvir SSD/voxilaprevir SSD tablet water content;
(ii) Copovidone peroxide content in velpatasvir SSD and in voxilaprevir SSD (iii) Reprocessed velpatasvir SSD and voxilaprevir SSD;
(iv) Voxilaprevir SSD and velpatasvir SSD potency (varying the ratio of velpatasvir or voxilaprevir to copovidone); and
(v) Seeding sofosbuvir/velpatasvir SSD/voxilaprevir SSD tablets with crystalline voxilaprevir Form VIII and Form X drug substances.

[5] = Impact of desiccant and packaging configuration on tablet stability (Tables 24A-24C); format: physicochemical; conditions: desiccant study (0, 1, 3 g); all conditions, 6 months;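 also: stability of tablets stored with different desiccant amounts and packaging configurations, evaluating physical and chemical stability plus dissolution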
[6] = BCS classification and pH dependence of solubility; format: physicochemical
[7] = Food effect (high calorie/high-fat meals) on pharmacokinetics in human subjects (Table 28); format: in vivo; conditions: tablets 400/100/100 mg; high calorie/high-fat meal
Description: The effect of food (high calorie/high-fat meals) on the pharmacokinetics of sofosbuvir/velpatasvir SSD/voxilaprevir SSD tablets (400/100/100 mg). […] As a result, sofosbuvir/velpatasvir SSD/voxilaprevir SSD tablets are administered with food.

[8] = Solid-state properties and open-container stability of sofosbuvir Forms 6 and 7; format: physicochemical
From the text: In some embodiments, and the Examples presented herein, the tablet formulation includes sofosbuvir having Form 6 and, optionally, a trace amount of Form 7. […] Form 6 of sofosbuvir is the thermodynamically stable form and remains physically stable when suspended in water. Form 7 of Sofosbuvir, while physically stable in water for short periods of time, can be converted to Form 6 with prolonged stirring.

[9] = Voxilaprevir Form VI pharmacokinetics after single and multiple doses in healthy subjects (Table 2); format: in vivo, human; conditions: for Ctau: mean
Description: Pub. No. 2015/0175625 A1. Initial studies were conducted using the crystalline Form VI of voxilaprevir. As described previously, Form VI of voxilaprevir is characterized by an X-ray powder diffractogram comprising the following peaks (±0.2°): at 14.6, 15.4, and 20.0 °2θ, as determined on a diffractometer using Cu—Kα radiation. Following single and multiple oral doses of voxilaprevir, Form VI, maximum plasma concentrations occurred between 2.0 and 5.0 hours (median tmax). […] Steady-state concentrations of voxilaprevir, Form VI were achieved after 7 days of once-daily dosing across all dose levels (Table 2).

[10] = Relative bioavailability of voxilaprevir amorphous free acid tablets vs Form VI tablets, fasted and fed, healthy subjects (Table 3); format: in vivo, human; conditions: human, in vivo, oral, single dose 100 mg, healthy subjects, fasted
From the text: Accordingly, a spray dried dispersion of voxilaprevir in the amorphous free acid form was selected for incorporation into the tablet formulation.

[11] = Velpatasvir pharmacokinetics after single and multiple oral doses (Table 1); format: in vivo, human; conditions: for t1/2 / tlast / tmax: median
Description: Following single and multiple oral doses of velpatasvir, maximum plasma concentrations occurred between 1.50 and 3.25 hours (median tmax).

[12] = Chemical and physical stability of Formulation G film-coated tablets Lots A and B (Tables 11A, 11B); format: physicochemical; conditions: packaged Formulation G tablets; 40° C./75% RH and 25° C./60% RH for 6 months
Description: In some embodiments, the film-coated tablets were packaged in 75 and 100 mL white HDPE bottles (Lots A and B, respectively, as described in Tables 11A, 11B) with 1 g silica gel desiccant canisters and a polyester fiber coil. The 75 and 100 mL HDPE bottles contained fourteen and twenty eight tablets, respectively. Each HDPE bottle was capped using a continuous thread, child-resistant polypropylene screw cap with an […], aluminum-faced line. The packaged tablets (14 and 28 counts) were evaluated for stability at 40° C./75% RH and 25° C./60% RH. Additionally, the 14-count bottles (without cap) were evaluated for stability under open conditions at 40° C./75% RH.

[13] = SSD potency study, tablet Lots A-D, all conditions
[14] = tablets from VEL SSD 6.0% residual ethanol and VOX SSD 2.1% residual acetone, all conditions
[15] = tablets from VEL SSD 7.0% and VOX SSD 3.2% water content, all conditions

level of degradation products [1]: 0.0%
loss after exposure to light [1]: no change
dissolution at 30 minutes ([2]; potency study Lot A): 85%
dissolution at 30 minutes ([2]; potency study Lot B): 91%
dissolution at 30 minutes ([2]; potency study Lots C and D): 92%
voxilaprevir released at 30 minutes ([2]; tablets containing 0% w/w crystalline voxilaprevir): 91%
voxilaprevir released at 30 minutes ([2]; tablets containing neat amorphous voxilaprevir free acid): 76%
voxilaprevir released at 30 minutes ([2]; tablets containing voxilaprevir SSD): 91%
voxilaprevir released at 30 minutes ([2]; tablets spiked with 5% w/w Form VIII or Form X): 84%
voxilaprevir released at 30 minutes ([2]; tablets spiked with 10% w/w Form VIII or Form X): 80%
voxilaprevir released at 30 minutes ([2]; tablets spiked with 20% w/w Form VIII or Form X): 73%
dissolution from tablets [3]: Incomplete dissolution
dissolution from tablets at 60 minutes [3]: complete dissolution
total impurities/degradation products [4, 13]: 0.7%
total impurities/degradation products [4, 14]: 0.0%
total impurities/degradation products [4, 15]: 0.0%
total impurities/degradation products [5]: 0.0%
BCS Class [6]: BCS Class 2
aqueous solubility, pH dependence [6]: pH-dependent
Compound: CC[C@@H]1[C@@H]2CN(C(=O)[C@H](C(C)(C)C)NC(=O)O[C@@H]3C[C@H]3CCCCC(F)(F)c3nc4ccc(OC)cc4nc3O2)[C@@H]1C(=O)N[C@]1(C(=O)NS(=O)(=O)C2(C)CC2)C[C@H]1C(F)F [voxilaprevir, (1aR,5S,8S,9S,10R,22aR)-5-tert-butyl-N-{(1R,2R)-2-(difluoromethyl)-1-[(1-methylcyclopropanesulfonyl)carbamoyl]cyclopropyl}-9-ethyl-18,18-difluoro-14-methoxy-3,6-dioxo-1,1a,3,4,5,6,9,10,18,19,20,21,22,22a-tetradecahydro-8H-7,10-methanocyclopropa[18,19][1,10,3,6]dioxadiazacyclononadecino[11,12-b]quinoxaline-8-carboxamide]

effect of food on plasma exposure [7]: does not substantially alter
Compound: C[C@H](NP(=O)(O)OC[C@H]1OC(n2ccc(=O)[nH]c2=O)[C@](C)(F)[C@@H]1O)C(=O)O (stereo partly drawn) [Formulation M2]

Compound: CC(C)OC(=O)[C@H](C)N[P@](=O)(OC[C@H]1O[C@@H](n2ccc(=O)[nH]c2=O)[C@](C)(F)[C@@H]1O)Oc1ccccc1 [Form 6, sofosbuvir]
hygroscopicity [8]: non-hygroscopic
photosensitivity [8]: not photosensitive
physical and chemical stability ([8]; open container, 1 month at 40° C./75% RH): physically and chemically stable

Ctau ([9]; multiple dose 30 mg): 1.9 ng/mL
Ctau ([9]; multiple dose 100 mg): 5.7 ng/mL
Ctau ([9]; multiple dose 300 mg): 10.0 ng/mL
steady-state concentrations achieved after ([9]; once-daily dosing, all dose levels): 7 days
t1/2 ([9]; single dose 300 mg, median): 35.49 h
AUC(0-inf) [10]: 326 ng·h/mL
Cmax ([10]; read-out: Cmax): 21.7 ng/mL
Compound: CC[C@@H]1[C@@H]2CN(C(=O)[C@H](C(C)(C)C)NC(=O)O[C@@H]3C[C@H]3CCCCC(F)(F)c3nc4ccc(OC)cc4nc3O2)[C@@H]1C(=O)N[C@]1(C(=O)NS(=O)(=O)C2(C)CC2)C[C@H]1C(F)F [voxilaprevir, Form VI, voxilaprevir]

effect of food on plasma exposure [7]: does not substantially alter
Compound: C[C@@]1(F)[C@H](O)[C@@H](CO)O[C@H]1n1ccc(=O)[nH]c1=O [Formulation M1]

Compound: COC[C@H]1C[C@@H](c2ncc(-c3ccc4c(c3)COc3cc5c(ccc6nc([C@@H]7CC[C@H](C)N7C(=O)[C@@H](NC(=O)OC)C(C)C)[nH]c65)cc3-4)[nH]2)N(C(=O)[C@H](NC(=O)OC)c2ccccc2)C1 [velpatasvir, methyl {(2S)-1-[(2S,5S)-2-(9-{2-[(2S,4S)-1-{(2R)-2-[(methoxycarbonyl)amino]-2-phenylacetyl}-4-(methoxymethyl)pyrrolidin-2-yl]-1H-imidazol-5-yl}-1,11-dihydroisochromeno[4′,3′:6,7]naphtho[1,2-d]imidazol-2-yl)-5-methylpyrrolidin-1-yl]-3-methyl-1-oxobutan-2-yl}carbamate]
CLss/F ([11]; multiple dose 5 mg, mean): 36,095.7 mL/h
Cmax ([11]; multiple dose 5 mg, mean): 28.3 ng/mL
t1/2 ([11]; multiple dose 5 mg): 13.73 h
tlast ([11]; multiple dose 5 mg): 24.00 h
tmax ([11]; multiple dose 5 mg): 2.00 h
CLss/F ([11]; multiple dose 50 mg, mean): 19,593.0 mL/h
Cmax ([11]; multiple dose 50 mg, mean): 411.4 ng/mL
Ctau ([11]; multiple dose 50 mg, mean): 37.9 ng/mL
t1/2 ([11]; multiple dose 50 mg): 13.02 h
tlast ([11]; multiple dose 50 mg): 24.00 h
CLss/F ([11]; multiple dose 150 mg, mean): 45,082.3 mL/h
Cmax ([11]; multiple dose 150 mg, mean): 669.4 ng/mL
Ctau ([11]; multiple dose 150 mg, mean): 63.4 ng/mL
t1/2 ([11]; multiple dose 150 mg): 15.15 h
tlast ([11]; multiple dose 150 mg): 24.00 h
CLss/F ([11]; multiple dose 450 mg, mean): 58,804.6 mL/h
Cmax ([11]; multiple dose 450 mg, mean): 1195.7 ng/mL
Ctau ([11]; multiple dose 450 mg, mean): 127.7 ng/mL
t1/2 ([11]; multiple dose 450 mg): 11.74 h
tlast ([11]; multiple dose 450 mg): 24.00 h
tmax ([11]; multiple dose 450 mg): 3.00 h
mean plasma concentration at 24 hours postdose relative to protein-adjusted EC50 for genotype 1 to 6 HCV replicons ([11]; multiple once-daily doses greater than 5 mg): above
CL/F ([11]; single dose 5 mg, mean): 58,398.0 mL/h
tlast ([11]; single dose 5 mg): 24.00 h
CL/F ([11]; single dose 50 mg, mean): 19,188.4 mL/h
Clast ([11]; single dose 50 mg, mean): 2.34 ng/mL
tlast ([11]; single dose 50 mg): 72.00 h
CL/F ([11]; single dose 100 mg, mean): 24,617.9 mL/h
Clast ([11]; single dose 100 mg, mean): 2.85 ng/mL
tlast ([11]; single dose 100 mg): 95.00 h
CL/F ([11]; single dose 150 mg, excluding one patient, mean (% CV)): ^bMean (% CV) CL/F for the VEL 150 mg group (excluding one patient) was 31,403.8 (40.5) mL/h.
CL/F ([11]; single dose 150 mg, mean): 72,185.5 mL/h
Clast ([11]; single dose 150 mg, mean): 2.23 ng/mL
tlast ([11]; single dose 150 mg): 96.00 h
CL/F ([11]; single dose 450 mg, mean): 53,676.4 mL/h
Clast ([11]; single dose 450 mg, mean): 3.28 ng/mL
tlast ([11]; single dose 450 mg): 96.00 h
total impurities/degradation products [12]: 0.0%
level of degradation products [1]: 0.4%
loss after exposure to light [1]: up to 0.3%
dissolution at 30 minutes ([2]; potency study Lot A): 86%
dissolution at 30 minutes ([2]; potency study Lot B): 91%
dissolution at 30 minutes ([2]; potency study Lots C and D): 89-93%
release of velpatasvir at 30 minutes ([2]; tablets containing neat amorphous velpatasvir free base): 62%
release of velpatasvir at 30 minutes ([2]; tablets containing velpatasvir SSD): 91%
dissolution from tablets [3]: Incomplete dissolution
dissolution from tablets at 60 minutes [3]: complete dissolution
total impurities/degradation products [4, 13]: 0.0%
total impurities/degradation products ([4]; tablets from SSDs with copovidone 544 ppm (VEL SSD) and 655 ppm (VOX SSD) peroxides): 0.0%
total impurities/degradation products [4, 14]: 0.0%
total impurities/degradation products [4, 15]: 0.0%
BCS Class [6]: BCS Class 4
aqueous solubility, pH dependence [6]: pH-dependent
